From ChEMBL document CHEMBL1201862, “PubChem BioAssay data set” (2004)
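Briefly, cells in 96-well plates were exposed to five compound concentrations for 48 h, and endpoints were estimated by linear interpolation. GI50 is the concentration that inhibits growth by half.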 Calls of active or inactive are those of the source. Cut-off read from the data, not from the text of the source: active = GI50 up to about 1.1 µM and inactive = higher.

Columns and labels:
Test in all cases: growth of human tumour cells (NCI), 48 h
K562 = test system: K562
NCI-H226 = test system: NCI-H226
T47D = test system: T47D
SR = test system: SR
RPMI-8226 = test system: RPMI-8226
NCI-H460 = test system: NCI-H460
SK-OV-3 = test system: SK-OV-3
UACC-257 = test system: UACC-257
NCI-H522 = test system: NCI-H522
OVCAR-4 = test system: OVCAR-4
SK-MEL-5 = test system: SK-MEL-5
U-251 = test system: U-251
OVCAR-5 = test system: OVCAR-5
EKVX = test system: EKVX
TK-10 = test system: TK-10
MDA-MB-231 = test system: MDA-MB-231
M14 = test system: M14
HCC 2998 = test system: HCC 2998
MDA-N = test system: MDA-N

| SMILES | GI50 (K562) | GI50 (NCI-H226) | GI50 (T47D) | GI50 (SR) | GI50 (RPMI-8226) | GI50 (NCI-H460) | GI50 (SK-OV-3) | GI50 (UACC-257) | GI50 (NCI-H522) | GI50 (OVCAR-4) | GI50 (SK-MEL-5) | GI50 (U-251) | GI50 (OVCAR-5) | GI50 (EKVX) | GI50 (TK-10) | GI50 (MDA-MB-231) | GI50 (M14) | GI50 (HCC 2998) | GI50 (MDA-N) |
| --- | --- | --- | --- | --- | --- | --- | --- | --- | --- | --- | --- | --- | --- | --- | --- | --- | --- | --- | --- |
| Oc1cccc(/C=N/N=c2/[nH][nH]/c(=N/N=C/c3cccc(O)c3)c3ccccc23)c1 | 18.3 µM (inactive) | 14.5 µM (inactive) | 15.7 µM (inactive) | 2.55 µM (inactive) | 11.5 µM (inactive) | 21.4 µM (inactive) | 29.3 µM (inactive) | 29.9 µM (inactive) | 17.3 µM (inactive) | 17.4 µM (inactive) | 0.933 µM (active) | 13.3 µM (inactive) | 40.1 µM (inactive) | 18.3 µM (inactive) | 22.1 µM (inactive) | 7.89 µM (inactive) | 21.7 µM (inactive) |  |  |
| CCOC(=O)c1c(Br)c(-c2ccc(OC)cc2)c(Br)n1C | 3.61 µM (inactive) | 22.2 µM (inactive) | 13.4 µM (inactive) | 2.23 µM (inactive) | 17.7 µM (inactive) | 52.2 µM (inactive) | 18.5 µM (inactive) | 23.2 µM (inactive) | 6.62 µM (inactive) | 47.1 µM (inactive) | 10.6 µM (inactive) | 33.2 µM (inactive) | 72.3 µM (inactive) | 16.8 µM (inactive) | 20.7 µM (inactive) | 17 µM (inactive) | 26.4 µM (inactive) | > 10 µM (inactive) |  |
| N#CC(c1nc2ccccc2s1)c1ncnc(Cl)c1[N+](=O)[O-] (stereo unspecified) |  | 20.2 µM (inactive) | 29.1 µM (inactive) |  | 28.1 µM (inactive) | 20.3 µM (inactive) | 37.8 µM (inactive) | 20.6 µM (inactive) | 18.9 µM (inactive) | 27.7 µM (inactive) | 15.8 µM (inactive) | 32.7 µM (inactive) | 24.3 µM (inactive) | 23.2 µM (inactive) | 34.3 µM (inactive) | 30.8 µM (inactive) | 17.5 µM (inactive) |  | 18.2 µM (inactive) |
| O=C1Nc2cc([N+](=O)[O-])ccc2C(=O)N2CCC[C@@H]12 | > 100 µM (inactive) | > 100 µM (inactive) | > 100 µM (inactive) | > 100 µM (inactive) | > 100 µM (inactive) | > 100 µM (inactive) | > 100 µM (inactive) | > 100 µM (inactive) | > 100 µM (inactive) | > 100 µM (inactive) | > 100 µM (inactive) | > 100 µM (inactive) | > 100 µM (inactive) | > 100 µM (inactive) | > 100 µM (inactive) | > 100 µM (inactive) | > 100 µM (inactive) | > 100 µM (inactive) |  |
| O=[N+]([O-])C(/C(Cl)=C(/Cl)N1CCOCC1)=C1\Nc2ccccc2O1 | > 100 µM (inactive) | > 100 µM (inactive) | > 100 µM (inactive) |  | > 100 µM (inactive) | 12.7 µM (inactive) | > 100 µM (inactive) | 15 µM (inactive) |  | > 100 µM (inactive) |  | 86.9 µM (inactive) | > 100 µM (inactive) | > 100 µM (inactive) |  | > 100 µM (inactive) | > 100 µM (inactive) | 16.1 µM (inactive) |  |
| COc1ccc(CNc2nc(NCc3ccc(OC)cc3)nc(Nc3ccccc3)n2)cc1 | 5 µM (inactive) | 64.4 µM (inactive) | > 100 µM (inactive) | 1.11 µM (active) | 8.34 µM (inactive) | 7.16 µM (inactive) | 61.5 µM (inactive) | 35.1 µM (inactive) | 5.73 µM (inactive) | 8.87 µM (inactive) | 8.57 µM (inactive) | 16.7 µM (inactive) | > 100 µM (inactive) | > 100 µM (inactive) | 21.5 µM (inactive) | 24.1 µM (inactive) | 45.7 µM (inactive) |  |  |
| O=c1oc2c(Cl)cc(Cl)cc2cc1C1=CSC2=NCCN12 | 34.4 µM (inactive) |  | 36.5 µM (inactive) | 40.6 µM (inactive) | 58.9 µM (inactive) | 57.5 µM (inactive) | > 100 µM (inactive) | > 100 µM (inactive) |  | 39.7 µM (inactive) | 27.4 µM (inactive) | 44.7 µM (inactive) | > 100 µM (inactive) | 41.9 µM (inactive) | 73.1 µM (inactive) | 28.9 µM (inactive) | 55.2 µM (inactive) |  | 36.2 µM (inactive) |
| O=C(O)CCCNc1ncc2c(n1)-c1ccccc1OC2 | > 100 µM (inactive) | > 100 µM (inactive) |  | > 100 µM (inactive) | > 100 µM (inactive) | > 100 µM (inactive) | > 100 µM (inactive) | > 100 µM (inactive) | > 100 µM (inactive) | > 100 µM (inactive) | > 100 µM (inactive) | > 100 µM (inactive) | > 100 µM (inactive) | > 100 µM (inactive) | > 100 µM (inactive) | > 100 µM (inactive) | > 100 µM (inactive) |  | > 100 µM (inactive) |
| COc1cc(-c2c3c(cc4c2OCO4)[C@@H](Nc2ccc4c(c2)Cc2cc(N[C@@H]5c6cc7c(cc6C(c6cc(OC)c(O)c(OC)c6)[C@H]6C(=O)OC[C@H]56)OCO7)ccc2-4)[C@H]2COC(=O)[C@@H]2C3)cc(OC)c1O (stereo partly specified) |  | 43.5 µM (inactive) | 98.2 µM (inactive) | 11.6 µM (inactive) | > 100 µM (inactive) | 17.3 µM (inactive) | 14.8 µM (inactive) | 48.8 µM (inactive) |  |  | 18.5 µM (inactive) | 26.7 µM (inactive) | 27.8 µM (inactive) | 74.6 µM (inactive) | 31 µM (inactive) | 21 µM (inactive) | 21.9 µM (inactive) |  | 13.3 µM (inactive) |
| CC#Cc1ccc(-c2ccccc2)s1 |  | > 100 µM (inactive) |  | > 100 µM (inactive) |  | > 100 µM (inactive) |  | > 100 µM (inactive) | > 100 µM (inactive) | > 100 µM (inactive) | > 100 µM (inactive) | > 100 µM (inactive) | > 100 µM (inactive) | > 100 µM (inactive) | > 100 µM (inactive) | > 100 µM (inactive) | > 100 µM (inactive) |  | > 100 µM (inactive) |
| COc1ccc(CC2NC(=O)/C=C/CC(C(C)C3OC3c3ccccc3)OC(=O)C(CC(C)C)OC(=O)C(C)CNC2=O)cc1Cl (stereo unspecified) | < 1e-05 µM (active) | 2.4e-05 µM (active) |  | < 1e-05 µM (active) | 3.62e-05 µM (active) | < 1e-05 µM (active) | 6.68e-05 µM (active) | 4.07e-05 µM (active) | < 1e-05 µM (active) |  | < 1e-05 µM (active) | 2.56e-05 µM (active) |  |  |  | 1.47e-05 µM (active) | 1.04e-05 µM (active) | 3.07e-05 µM (active) | < 1e-05 µM (active) |
| CCC(C=O)P1(=O)OC(C)(C)CN1C(C)(C)C (stereo unspecified) | 77.8 µM (inactive) | > 100 µM (inactive) | 31.6 µM (inactive) | > 100 µM (inactive) | 65.3 µM (inactive) | > 100 µM (inactive) | 68.1 µM (inactive) | > 100 µM (inactive) |  | > 100 µM (inactive) | > 100 µM (inactive) | > 100 µM (inactive) | > 100 µM (inactive) | 91.4 µM (inactive) | 93.3 µM (inactive) | > 100 µM (inactive) | > 100 µM (inactive) | 76.7 µM (inactive) |  |
| COc1cc(C2CC(C)(Nc3ccccc3)Oc3cc4c(cc32)OCO4)cc(OC)c1OC (stereo unspecified) | 0.0933 µM (active) | 0.855 µM (active) |  | 0.239 µM (active) | 0.263 µM (active) | 0.327 µM (active) | 0.394 µM (active) | 2.2 µM (inactive) | 0.296 µM (active) | 1.84 µM (inactive) | 0.153 µM (active) | 0.279 µM (active) | 2.71 µM (inactive) | 1.82 µM (inactive) | 1.88 µM (inactive) | 0.853 µM (active) | 0.223 µM (active) | 0.729 µM (active) | 0.0412 µM (active) |
| O=C(Nc1nc2ncn(CC(COc3ccccc3)OC(=O)c3ccccc3)c2c(=O)[nH]1)c1ccccc1 (stereo unspecified) | > 100 µM (inactive) | > 100 µM (inactive) |  | 58.5 µM (inactive) | > 100 µM (inactive) |  | > 100 µM (inactive) | > 100 µM (inactive) | > 100 µM (inactive) | > 100 µM (inactive) | > 100 µM (inactive) | > 100 µM (inactive) | > 100 µM (inactive) | > 100 µM (inactive) |  |  | > 100 µM (inactive) |  |  |
| CCN(CC)CCO/N=C1/C=C2CCC3C(CC[C@@]4(C)C3CC[C@]4(C)O)[C@@]2(C)CC1 (stereo partly specified) | 4.48 µM (inactive) | 2.49 µM (inactive) | 7.59 µM (inactive) |  | 4.28 µM (inactive) | 3.41 µM (inactive) | 14.3 µM (inactive) | 4.9 µM (inactive) | 2.16 µM (inactive) | 17.5 µM (inactive) | 12.5 µM (inactive) | 3.44 µM (inactive) | 16.5 µM (inactive) | 6.21 µM (inactive) | 15.2 µM (inactive) | 14.1 µM (inactive) | 8.79 µM (inactive) | 5.22 µM (inactive) | 2.49 µM (inactive) |
| S=C=NC1CCC(c2cc3ccccc3s2)(N2CCCCC2)CC1 (stereo unspecified) | 0.0546 µM (active) |  | 2.99 µM (inactive) | 0.071 µM (active) | 1.46 µM (inactive) | 1.87 µM (inactive) | 2.22 µM (inactive) | 1.73 µM (inactive) | 1.63 µM (inactive) | 1.87 µM (inactive) | 1.56 µM (inactive) |  | 1.75 µM (inactive) | 2.16 µM (inactive) | 2 µM (inactive) |  | 1.86 µM (inactive) | 1.8 µM (inactive) | 1.77 µM (inactive) |
| COC(=O)Cc1ccc2c(c1)Sc1ccc(CC(=O)OC)cc1N2C | 6.75 µM (inactive) | 49.5 µM (inactive) | 32.2 µM (inactive) | 14.4 µM (inactive) | 39.1 µM (inactive) | 33.1 µM (inactive) | 38.3 µM (inactive) | 30.5 µM (inactive) | 9.75 µM (inactive) | 28.3 µM (inactive) | 12.3 µM (inactive) | 19.4 µM (inactive) | > 65.5 µM (inactive) | 42 µM (inactive) | 58.3 µM (inactive) | 13.4 µM (inactive) | 30.3 µM (inactive) | 54 µM (inactive) |  |
